From paper PMC10762177, “Novel betulin derivatives as multidrug reversal agents targeting P-glycoprotein” (Scientific Reports, 2024)
Values joined by “and” are separate entries in the source; they are usually repeats but may differ in a detail not shown here. Identical values can stand only once. Counter-ions that a name gives are not always drawn. Like-named read-outs stand apart in the source and are kept apart here.

Assays:
[1] = system: K562/Dox cells; assay: MTT colorimetric assay, cytotoxicity on resistant K562/Dox; type: cell-based; details: for IC50: Homo sapiens, K562, 48 h, read-out: IC50 K562/Dox; for toxicity: 50 μM
Experimental: This colorimetric technique is based on the ability of viable cells to capture MTT and reduce it through the mitochondrial enzyme succinic dehydrogenase to its insoluble form, formazan crystals. The target compounds dissolved in DMSO (0.5% v/v as final concentration which was non-toxic to cells) at a maximum concentration of 50 µM were exposed to 5 × 10^4 cells distributed in a 96-well plate and incubated for 48 h. […] After this time, the plate was centrifuged at 2000 rpm for 10 min, and 100 µL of DMSO was added to dissolve the formazan crystals formed. Absorbance (Abs) was read at a wavelength of 595 nm in an iMark microplate reader (Bio-Rad, USA). The percentages of cytotoxicity were determined as compared to DMSO treated control cells, which were considered 100% viable as showing the same level of growth as the untreated cells.

[2] = system: K562 cells; assay: MTT colorimetric assay, cytotoxicity on sensitive K562; type: cell-based; details: for IC50: Homo sapiens, MTT, 48 h; for toxicity: 50 μM, K562, MTT
Experimental: This colorimetric technique is based on the ability of viable cells to capture MTT and reduce it through the mitochondrial enzyme succinic dehydrogenase to its insoluble form, formazan crystals. […] After this time, the plate was centrifuged at 2000 rpm for 10 min, and 100 µL of DMSO was added to dissolve the formazan crystals formed. Absorbance (Abs) was read at a wavelength of 595 nm in an iMark microplate reader (Bio-Rad, USA).

[3] = target: P-gp (Homo sapiens, UniProt P08183); assay: Rhodamine 123 intracellular accumulation assay in K562/Dox (flow cytometry); details: for Rho123 accumulation / anti-P-gp activity / MEC (minimum effective concentration): K562/Dox; for Rho123 accumulation / anti-P-gp activity: highest concentrations tested (50 or 6.25 µM); for FAR (fluorescence activity ratio): Rho123, K562/Dox; for MEC (minimum effective concentration): Rho123 accumulation
Chain of P-gp (P08183 whole entry): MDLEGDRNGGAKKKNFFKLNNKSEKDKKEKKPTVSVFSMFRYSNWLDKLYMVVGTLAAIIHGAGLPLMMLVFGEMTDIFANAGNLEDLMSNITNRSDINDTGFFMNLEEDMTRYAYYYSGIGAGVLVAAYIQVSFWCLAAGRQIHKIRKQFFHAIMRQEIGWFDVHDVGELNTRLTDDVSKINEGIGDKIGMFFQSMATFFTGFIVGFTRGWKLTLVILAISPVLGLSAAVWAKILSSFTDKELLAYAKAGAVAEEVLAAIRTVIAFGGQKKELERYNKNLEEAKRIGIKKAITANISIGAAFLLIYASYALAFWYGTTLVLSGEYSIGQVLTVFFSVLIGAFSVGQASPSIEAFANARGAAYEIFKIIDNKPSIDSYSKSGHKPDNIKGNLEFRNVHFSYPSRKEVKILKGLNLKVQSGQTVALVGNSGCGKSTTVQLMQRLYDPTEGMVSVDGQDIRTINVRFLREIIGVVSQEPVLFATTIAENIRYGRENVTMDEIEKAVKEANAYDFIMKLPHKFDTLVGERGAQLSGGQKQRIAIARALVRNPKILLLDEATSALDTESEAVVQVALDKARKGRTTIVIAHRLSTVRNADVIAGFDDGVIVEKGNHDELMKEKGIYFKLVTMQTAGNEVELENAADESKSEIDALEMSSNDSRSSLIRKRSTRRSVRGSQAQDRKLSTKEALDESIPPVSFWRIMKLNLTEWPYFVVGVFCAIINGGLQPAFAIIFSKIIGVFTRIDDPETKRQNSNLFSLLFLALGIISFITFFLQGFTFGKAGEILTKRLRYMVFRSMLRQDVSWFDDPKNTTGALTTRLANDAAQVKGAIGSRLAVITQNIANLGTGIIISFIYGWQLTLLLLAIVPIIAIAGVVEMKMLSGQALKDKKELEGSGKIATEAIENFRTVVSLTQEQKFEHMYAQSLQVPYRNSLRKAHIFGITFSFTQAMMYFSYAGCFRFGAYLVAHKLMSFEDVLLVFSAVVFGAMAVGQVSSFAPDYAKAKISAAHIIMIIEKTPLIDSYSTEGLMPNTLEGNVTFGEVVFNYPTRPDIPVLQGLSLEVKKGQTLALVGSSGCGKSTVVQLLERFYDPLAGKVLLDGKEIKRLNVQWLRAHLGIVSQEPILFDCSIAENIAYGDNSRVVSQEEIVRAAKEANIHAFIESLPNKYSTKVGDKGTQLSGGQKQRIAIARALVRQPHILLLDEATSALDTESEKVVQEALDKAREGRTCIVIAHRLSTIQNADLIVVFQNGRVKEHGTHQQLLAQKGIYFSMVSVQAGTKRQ

Structure (SMILES) | IC50 ([1]; MTT, 48 h, K562/Dox) | IC50 ([2]; K562, 48 h, K562) | Rho123 accumulation / anti-P-gp activity [3] | FAR (fluorescence activity ratio) ([3]; 50 µM) | MEC (minimum effective concentration) [3] | FAR (fluorescence activity ratio) ([3]; 12.50 µM) | FAR (fluorescence activity ratio) ([3]; 6.25 µM) | further results
C=C(C)[C@@H]1CC[C@]2(COC(=O)/C=C/c3cc(OC)c(OC)c(OC)c3)CC[C@]3(C)[C@H](CC[C@@H]4[C@@]5(C)CC[C@H](O)C(C)(C)[C@@H]5CC[C@]43C)[C@@H]12 [Compound 3d] | > 50 µM | > 50 µM | did not induce statistically significant Rho123 accumulation | 1.00 ± 0.06 | > 50 µM | – | – | –
C=C(C)[C@@H]1CC[C@]2(C(=O)NCc3cc(OC)c(OC)c(OC)c3)CC[C@]3(C)[C@H](CC[C@@H]4[C@@]5(C)CC[C@H](O)C(C)(C)[C@@H]5CC[C@]43C)[C@@H]12 [Compound 4] | 34.4 ± 2.59 µM | 19.7 ± 0.59 µM | – | – | 25 µM and 25.0 µM | 1.04 ± 0.01 | – | toxicity ([1]; K562/Dox, MTT): more than 55%; toxicity [2]: more than 55%; fold less active against P-gp than carbamate 6d ([3]; ratio of MEC values, Rho123): 32
C=C(C)[C@@H]1CC[C@]2(COC(=O)/C=C/c3cc(OC)c(OC)cc3OC)CC[C@]3(C)[C@H](CC[C@@H]4[C@@]5(C)CC[C@H](O)C(C)(C)[C@@H]5CC[C@]43C)[C@@H]12 [Compound 3e] | > 50 µM | > 50 µM | did not induce statistically significant Rho123 accumulation | 0.78 ± 0.01 | > 50 µM | – | – | –
C=C(C)[C@@H]1CC[C@]2(COC(=O)Nc3cc(OC)c(OC)c(OC)c3)CC[C@]3(C)[C@H](CC[C@@H]4[C@@]5(C)CC[C@H](O)C(C)(C)[C@@H]5CC[C@]43C)[C@@H]12 [Compound 6a] | > 50 µM | > 50 µM | – | 1.62 ± 0.10 | 1.56 µM | 1.20 ± 0.08 | 1.12 ± 0.02 | FAR (fluorescence activity ratio) ([3]; 0.78 µM): 0.98 ± 0.02; FAR (fluorescence activity ratio) ([3]; 1.56 µM): 1.17 ± 0.02; FAR (fluorescence activity ratio) ([3]; 3.12 µM): 1.12 ± 0.005; FAR (fluorescence activity ratio) ([3]; 25 µM): 1.33 ± 0.11
C=C(C)[C@@H]1CC[C@]2(COC(=O)NCCc3ccc(OC)c(OC)c3)CC[C@]3(C)[C@H](CC[C@@H]4[C@@]5(C)CC[C@H](O)C(C)(C)[C@@H]5CC[C@]43C)[C@@H]12 [Compound 6f] | > 50 µM | > 50 µM | – | 2.27 ± 0.31 | 1.56 µM | 1.73 ± 0.18 | 1.45 ± 0.16 | FAR (fluorescence activity ratio) ([3]; 0.78 µM): 1.02 ± 0.02; FAR (fluorescence activity ratio) ([3]; 1.56 µM): 1.13 ± 0.04; FAR (fluorescence activity ratio) ([3]; 3.12 µM): 1.25 ± 0.02; FAR (fluorescence activity ratio) ([3]; 25 µM): 1.95 ± 0.25
C=C(C)[C@@H]1CC[C@]2(COC(=O)N3CCNCC3)CC[C@]3(C)[C@H](CC[C@@H]4[C@@]5(C)CC[C@H](O)C(C)(C)[C@@H]5CC[C@]43C)[C@@H]12 [Compound 6h] | 12.5 ± 0.5 µM | 4.6 ± 0.24 µM | did not induce statistically significant Rho123 accumulation | – | – | – | 1.06 ± 0.08 | toxicity ([1]; K562/Dox, MTT): more than 55%; toxicity [2]: more than 55%
COc1cccc2c1C(=O)c1c(O)c3c(c(O)c1C2=O)C[C@@](O)(C(=O)CO)C[C@@H]3O[C@H]1C[C@H](N)[C@H](O)[C@H](C)O1 [Doxorubicin, Doxorubicin hydrochloride, reference compound] | 84.2 ± 7.08 µM | 2.61 ± 0.7 µM | – | – | – | – | – | fold resistance of K562/Dox versus K562 ([1]; ratio of IC50 values, MTT): 32.3
C=C(C)[C@@H]1CC[C@]2(COC(=O)/C=C/c3ccc(OC)cc3OC)CC[C@]3(C)[C@H](CC[C@@H]4[C@@]5(C)CC[C@H](O)C(C)(C)[C@@H]5CC[C@]43C)[C@@H]12 [Compound 3c] | > 50 µM | > 50 µM | did not induce statistically significant Rho123 accumulation | 0.74 ± 0.05 | > 50 µM | – | – | –
COc1ccc(CCN(C)CCCC(C#N)(c2ccc(OC)c(OC)c2)C(C)C)cc1OC (stereo not shown) [Verapamil, Verapamil hydrochloride, reference compound] | – | – | – | – | – | – | – | inhibition on proliferation / toxicity ([1]; 50 μM (highest concentration assayed), K562/Dox): not toxic; IC50 [1]: > 50 µM; inhibition on proliferation / toxicity ([2]; 50 μM (highest concentration assayed), K562): not toxic; IC50 ([2]; K562): > 50 µM
